≈ marks a conversion by molar mass, not a printed value. Entries after “also recorded” stand apart in the source; their conditions may differ. Where two headings read alike, the source gives them in different places. Positions of bridges follow the written chain, without caps; N, C: chain ends. Residues, ends and D or L forms follow the SMILES beside them. No end group written: not given here.

Series [1] has as its system A. niger CBS 120.49. As for the experimental part:
(§1) The fungal strains used in this study are P. digitatum CECT20796, P. chrysogenum Q176, Botrytis cinerea CECT2100, Fusarium oxysporum 4287, and Aspergillus niger CBS 120.49. Fungi were cultured on potato dextrose agar (Difco-BD Diagnostics, Sparks, MD, USA) plates for 7–10 days at 24°C with the exception of F. oxysporum, which was cultured on potato dextrose broth (PDB; Difco-BD Diagnostics) at 28°C for 4 days with shaking. Conidia (mitotic asexual spores) were collected, filtered, and adjusted to the appropriate concentration. For antibacterial assays, the Gram-negative bacterium Escherichia coli JM109 was grown in Luria-Bertani (LB) medium at 37°C with shaking.
(§2) Growth inhibition assays were performed in 96-well microtiter plates (Nunc, Roskilde, Denmark) in a total volume of 100 μL as described previously ([López-García et al., 2002]). […] All samples were prepared in triplicate. Plates were statically incubated for 72 h at the optimal temperature of each microorganism. Growth was determined by measuring the optical density (OD) at 600 nm (OD600) using a Multiskan Spectrum plate spectrophotometer (Thermo Electron Corporation, Vantaa, Finland), and the OD600 mean and SD were calculated. Dose–response curves were generated from measurements after 72 h for fungi, and 48 h for E. coli. These experiments were repeated at least twice.

Series [2] deals with B. cinerea CECT2100. The protocol: as §1, §2
Series [3] relates to F. oxysporum 4287. To be noted: 4287, 72 h. As for the experimental part: as §1, §2
Series [4] concerns P. chrysogenum Q176. Conditions: 72 h. As for the experimental part: as §1, §2
Series [5] concerns P. digitatum CECT20796. The protocol:
as §1, §2

Series [6] concerns the target T1, recombinant proteinase K (Parengyodontium album, UniProt P06873).
T1 construct: purchased Roche, Mannheim, Germany
To be noted: control peptide; ref López-García et al., 2015; cited from earlier work. As for the experimental part:
To exclude the possibility that increased sensitivity to proteolytic degradation could be the reason for limited antifungal activity, we tested the in vitro stability of the peptides derived from AfpB by incubation with proteinase K at different times and RP-HPLC analysis of the resultant digests.

Series [7] has as its target T1, recombinant proteinase K. In words: Proteolytic digestion assay with RP-HPLC analysis. Format: in vitro ADME. To be noted: two replicates; for resistance to degradation by proteinase K (in words): peptide 5 μM in 10 mM MOPS pH 7, 30°C, 0, 1, 2 and 24 h. The protocol:
(§3) The proteolytic digestion assays were performed as described ([Ferre et al., 2006]; [López-García et al., 2015]) with minor modifications. Peptides (5 μM) were dissolved in 10 mM MOPS pH 7 and digested with 5 μg/mL of recombinant proteinase K (2 U/mg; Roche, Mannheim, Germany) at 30°C. Aliquots were withdrawn from the reaction mixtures at 0, 1, 2, and 24 h of incubation and immediately heated at 80°C for 10 min to inactivate the enzyme. Two replicates were prepared for each treatment, and the experiments were repeated at least twice.
(§4) Analyses of peptide digests were conducted by RP-HPLC using a Waters system (Waters Corporation, Milford, MA, USA) equipped with a 1525 Binary HPLC pump, a 2996 Photodiode Array Detector, and a 717 plus Autosampler. A Symmetry C18 column (4.6 mm × 150 mm, 5 μm, Waters Corporation) kept at 40°C was operated at a flow rate of 1 mL/min. Peptides were eluted with a linear gradient of solvent B [acetonitrile with 0.1% trifluoroacetic acid (TFA)] in solvent A (water with 0.1% TFA) 0–40% in 20 min and detected at 214 nm.

Series [8] relates to T2, proteinase K.
T2 construct: purchased Roche, Mannheim, Germany
In words: Proteolytic digestion assay with RP-HPLC analysis. Format: in vitro ADME. To be noted: recombinant proteinase K; proteinase K 5 μg/mL (2 U/mg), peptide 5 μM in 10 mM MOPS pH 7, 30°C, 24 h; RP-HPLC C18 peak area at 214 nm; two replicates; read-out: peptide left after 24 h of treatment. The protocol: as §3, §4

The conditions of series [9]: ref Palicz et al., 2013; cited from earlier work. An excerpt:
(§5) There is an urgent need to develop new antifungal molecules with properties and mechanisms of action different from existing ones ([Brown et al., 2012]; [Fisher et al., 2012]). […] A remarkable group of AMPs are the antifungal proteins (AFPs) of fungal origin. AFPs belong to the broad class of defensins and are p ...

Series [10] concerns mammalian cells. Conditions: ref Marx et al., 2008; cited from earlier work.
Source text: as §5

Setting [11] is: proteinase K 5 μg/mL, RP-HPLC peak area at 214 nm.
Setting [12] is: B. cinerea CECT2100, 2.5 × 10^4 conidia/mL in 1/20 diluted PDB with 0.01% chloramphenicol, 72 h, OD600, triplicate.

T1 sequence (P06873 106-384): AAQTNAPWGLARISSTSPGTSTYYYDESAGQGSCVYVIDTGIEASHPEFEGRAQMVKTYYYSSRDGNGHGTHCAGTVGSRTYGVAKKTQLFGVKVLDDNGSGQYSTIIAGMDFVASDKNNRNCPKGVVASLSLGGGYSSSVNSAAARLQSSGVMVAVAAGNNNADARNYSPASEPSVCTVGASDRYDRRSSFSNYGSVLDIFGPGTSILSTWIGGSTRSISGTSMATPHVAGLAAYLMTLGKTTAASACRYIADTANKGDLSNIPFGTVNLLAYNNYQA

Regarding RKKWFW [PAF26, reference compound], the “Minimum inhibitory concentration (MIC)” value in series [1] (CBS 120.49, 72 h) is 8 µM; in series [2] (CECT2100, 72 h), 8 µM; in [3], 16 µM; in series [4], 16 µM; in series [5] (CECT20796, 72 h), 8 µM. Also, the “resistance to protease degradation” value in series [6] is recorded as “highly resistant”.

Consider `CC(C)C[C@@H]1NC(=O)[C@H](CO)NC(=O)[C@@H](NC(=O)[C@H](CCC(N)=O)NC(=O)CN)CSSC[C@@H](C(=O)N[C@H](C(=O)O)[C@@H](C)O)NC(=O)[C@H]([C@@H](C)O)NC(=O)[C@H](CC(N)=O)NC(=O)[C@H](Cc2c[nH]cn2)NC(=O)[C@H](CCCCN)NC1=O` [PAF109] (H-GQCSLKHNTCT-OH; disulfide 3-10), for which the “resistance to degradation by proteinase K (in words)” value (“resistance to degradation” for short) in [7] (setting [11]) is recorded as “remarkably resistant; also recorded: extremely stable”.

Take `C[C@@H]1NC(=O)[C@H](C)NC(=O)[C@H](CO)NC(=O)CNC(=O)[C@@H](NC(=O)[C@@H](N)CC(N)=O)CSSC[C@@H](C(=O)N[C@@H](CCC(=O)O)C(=O)O)NC(=O)[C@H](Cc2c[nH]cn2)NC(=O)[C@H](Cc2c[nH]cn2)NC(=O)[C@H](CCCNC(=N)N)NC(=O)[C@H](CC(=O)O)NC(=O)[C@H](CO)NC(=O)[C@H](CCCCN)NC(=O)[C@H](C)NC(=O)[C@H](CCCNC(=N)N)NC(=O)[C@H](CCCCN)NC(=O)[C@H](CC(N)=O)NC1=O` [PAF112] (H-NCGSAANKRAKSDRHHCE-OH; disulfide 2-17): the “Minimum inhibitory concentration (MIC)” value in series [1] (CBS 120.49, 72 h) was more than 128 µM; in series [2] (setting [12]) it was 128 µM (≈ 254 µg/mL); in series [4], more than 128 µM; in series [5] (CECT20796, 72 h) it was 64 µM (≈ 127 µg/mL). The remaining at 24 h, 5 μM in [8] was approximately 20%.

In the case of `CC[C@H](C)[C@@H]1NC(=O)[C@H](C(C)C)NC(=O)[C@H](CC(N)=O)NC(=O)[C@H](CCCNC(=N)N)NC(=O)CNC(=O)CNC(=O)[C@H](CCCCN)NC(=O)[C@H](CC(C)C)NC(=O)[C@H](Cc2ccc(O)cc2)NC(=O)[C@H]([C@@H](C)O)NC(=O)[C@@H](NC(=O)[C@@H](NC(=O)[C@@H](N)CC(N)=O)[C@@H](C)O)CSSC[C@@H](C(=O)NCC(=O)O)NC(=O)[C@H](CC(N)=O)NC(=O)[C@H](C(C)C)NC1=O` [PAF118] (H-NTCTYLKGGRNVIVNCG-OH; disulfide 3-16), the “Minimum inhibitory concentration (MIC)” value in [1] (CBS 120.49, 72 h) is more than 128 µM; in [2] (setting [12]), 64 µM (≈ 116 µg/mL); in series [4] it was more than 128 µM; in series [5] (CECT20796, 72 h), 64 µM (≈ 116 µg/mL). Moreover, the “peptide left after 24 h of treatment” value in [7] (proteinase K 5 μg/mL (2 U/mg), peptide 5 μM in 10 mM MOPS pH 7, 30°C, 24 h, RP-HPLC C18 peak area at 214 nm) is reported as “around 20%”. In series [7] (proteinase K 5 μg/mL, peptide 5 μM in 10 mM MOPS pH 7, 30°C, 1 and 2 h, RP-HPLC peak area at 214 nm), the “intact peptide after 1 and 2 h of treatment” value is “severe reduction”.

As to `CC(C)[C@@H]1NC(=O)[C@H](CCCNC(=N)N)NC(=O)[C@H](CCCNC(=N)N)NC(=O)[C@H](Cc2c[nH]cn2)NC(=O)[C@H](Cc2c[nH]cn2)NC(=O)[C@H](CCC(=O)O)NC(=O)[C@H](CC(=O)O)NC(=O)[C@H](Cc2ccc(O)cc2)NC(=O)[C@H](CCC(=O)O)NC(=O)[C@@H](NC(=O)[C@@H](N)Cc2c[nH]cn2)CSSC[C@@H](C(=O)N[C@@H](CCC(N)=O)C(=O)O)NC(=O)[C@H](CC(=O)O)NC1=O` [PAF119] (H-HCEYDEHHRRVDCQ-OH; disulfide 2-13), in series [7] (setting [11]), the “resistance to degradation” value is “remarkably resistant; also recorded: extremely stable”.

For the molecule NAGSAANKRAKSDRHHAE [PAF113], the “Minimum inhibitory concentration (MIC)” value in series [1] (A. niger CBS 120.49, 2.5 × 10^4 conidia/mL in 1/20 diluted PDB with 0.01% chloramphenicol, 72 h, OD600, triplicate) was more than 128 µM; in series [2] (setting [12]), 128 µM; in series [4] (P. chrysogenum Q176, 2.5 × 10^4 conidia/mL in 1/20 diluted PDB with 0.01% chloramphenicol, OD600, triplicate) it was more than 128 µM; in series [5] (P. digitatum CECT20796, 2.5 × 10^4 conidia/mL in 1/20 diluted PDB with 0.01% chloramphenicol, 72 h, 24°C, OD600, triplicate, repeated at least twice, concentration that completely inhibited growth in all experiments), 64 µM. For the same molecule, the “resistance to degradation” value in [7] (setting [11]) is “high sensitivity”. Further, the “degradation after 1 h of treatment” value in series [7] (proteinase K 5 μg/mL, peptide 5 μM in 10 mM MOPS pH 7, 30°C, 1 h, RP-HPLC peak area at 214 nm) is “completely degraded”.

On to `C[C@@H]1NC(=O)[C@H](CCCCN)NC(=O)[C@H](CCCCN)NC(=O)[C@H](CC(N)=O)NC(=O)[C@H](CC(=O)O)NC(=O)[C@H](Cc2ccccc2)NC(=O)[C@H](CCCCN)NC(=O)[C@@H]2CCCN2C(=O)[C@@H](NC(=O)[C@@H](N)CCCCN)CSSC[C@@H](C(=O)N[C@H](C(=O)O)[C@@H](C)O)NC(=O)[C@H](CCCCN)NC(=O)[C@H](CC(N)=O)NC(=O)[C@H](CC(N)=O)NC(=O)[C@H](CC(=O)O)NC(=O)[C@H](CCCCN)NC(=O)[C@H]([C@@H](C)O)NC1=O` [PAF116] (H-KCPKFDNKKATKDNNKCT-OH; disulfide 2-17), for which the “Minimum inhibitory concentration (MIC)” value in [2] (setting [12]) came to 16 µM (≈ 33.3 µg/mL); in series [5] (CECT20796, 72 h), 32 µM (≈ 66.6 µg/mL).

Take “AKYTGKCTKSKNECKYKNDAGKDTFIKCPKFDNKKCTKDNNKCTVDTYNNAVDCD (disulfide 7-36, 14-43, 28-54) [PAF protein]”: in [9], the toxicity in vivo entry is given as “non-toxic”. For the same molecule, in [10], the “toxicity to mammalian cells in vitro” value was “non-toxic”.

The record behind these values is PMC5382200, “Mapping and Identification of Antifungal Peptides in the Putative Antifungal Protein AfpB from the Filamentous Fungus Penicillium digitatum” (Frontiers in Microbiology, 2017).
